In patent US9422493B2, “Tritylated alkyl aryl ethers” (Rohm and Haas Company, priority 2012, dated 2016):

Key:
Format in all cases: physicochemical
[1] = Solubility studies: 0.1 g marker candidate in 0.9 g solvent, solution stability at 60 C, room temperature and -10 C
Protocol: Solutions were made from 0.1 grams of marker candidate and 0.9 grams of solvent. The mixtures were warmed briefly to 60° C. to completely dissolve the marker candidate, then the solutions were cooled to room temperature. The solutions were then placed into a −10° C. freezer, and the stability of the solutions was monitored for at least 7 days.
DPGME is dipropylene glycol mono-methyl ether and NMP is N-methylpyrrolidone; AROMATIC 200 and AROMATIC 150 are mixed aromatic solvents available from Exxon Mobil Corp.

[2] = Sunlight stability of marker solution, checked by GC
[3] = Stability and extractability of marker in xylenes solution against laundering agents, analysed by GC; settings: 2000 mg/kg in xylenes, room temperature, 8 hours
[4] = 75:25 Aromatic 200H: cyclohexanone
[5] = 75:25 Aromatic 200H: o-sec-butylphenol

CCCCCCCCCCCCOc1c(C(C)(C)C)cc(C(c2ccccc2)(c2ccccc2)c2ccccc2)cc1C(C)(C)C
SOLUBILITY BEHAVIOR −10 C. [1, 4]: sol 7D sol 7D | SOLUBILITY BEHAVIOR −10 C. [1, 5]: sol 7D sol 7D

CCCCCCCCCCCCOc1c(C(C)(C)C)cc(C(C)(C)C)cc1C(c1ccccc1)(c1ccccc1)c1ccccc1
SOLUBILITY BEHAVIOR −10 C. [1, 4]: xtls 6D xtls 6D | SOLUBILITY BEHAVIOR −10 C. [1, 5]: xtls 6D xtls 6D

CCCCCCCCCCOc1ccc(C(c2ccccc2)(c2ccccc2)c2ccccc2)cc1C(C)CC (centres unmarked) [DecTsBuPh]
% Change ([2]; Apr. 5, 2012): −1.90% | % Change ([2]; Apr. 13, 2012): 2.40% | % Change ([2]; Apr. 23, 2012): 0.90% | % Change ([2]; May 8, 2012): −1.40% | % Change ([2]; May 15, 2012): 1.80% | % Change ([3]; 2% Charcoal): −0.76% | % Change ([3]; 5% Bleach): 1.08% | % Change ([3]; 5% H2SO4, 5% by weight): −0.04% | % Change ([3]; 5% NaOH, 5% by weight, GC vs stock solution): 0.10% | % Change ([3]; 50% NaOH, 5% by weight): 0.60% | % Change ([3]; 98% H2SO4, 5% by weight): −1.84% | % Change ([3]; Fuller's Earth): 0.79% | % Change ([3]; Iron Specks (2% metal specs wt/wt)): 1.76% | […] −10 C. ([1]; Aromatic 200): sol 33D | […] −10 C. ([1]; DPGDME): sol 33D

CCCCCCCCCCCCOc1c(C(C)C)cc(C(c2ccccc2)(c2ccccc2)c2ccccc2)cc1C(C)C
SOLUBILITY BEHAVIOR −10 C. [1, 4]: xtls 4D

CCCCCCCCCCCCOc1ccc(C(c2ccccc2)(c2ccccc2)c2ccccc2)cc1C(C)C
SOLUBILITY BEHAVIOR −10 C. [1, 4]: sol 7D | SOLUBILITY BEHAVIOR −10 C. [1, 5]: xtls 3D

CCCCCCCCCCCCOc1c(C(C)CC)cc(C(c2ccccc2)(c2ccccc2)c2ccccc2)cc1C(C)CC (centres unmarked)
SOLUBILITY BEHAVIOR −10 C. [1, 4]: sol 7D sol 7D | SOLUBILITY BEHAVIOR −10 C. [1, 5]: sol 7D sol 7D

CCCCCCCCCCCCOc1ccc(C(c2ccccc2)(c2ccccc2)c2ccccc2)cc1C(C)(C)C
SOLUBILITY BEHAVIOR −10 C. [1, 4]: sol 7D sol 7D | SOLUBILITY BEHAVIOR −10 C. [1, 5]: sol 7D sol 7D
